Source: paper PMC8146289, “Tissue Distribution of Oleocanthal and Its Metabolites after Oral Ingestion in Rats” (Antioxidants, 2021)

What was measured:
[1] = set-up: method as in doi:10.1016/j.foodchem.2009.07.017; settings: cited from earlier work
[2] = Tissue distribution of OLC and its metabolites in rats after oral gavage of OLC-enriched refined olive oil (LC-ESI-LTQ-Orbitrap-MS); type: in vivo, Male Sprague Dawley rats; settings: for plasma and tissues in which the compound was detected: liver, kidney, spleen, lungs, heart, brain, thyroid, skin, 1, 2, 4.5 h after oral ROO with OLC; for decrease of OLC concentration in the intestine / decrease of OLC concentration in the stomach: relative to the maximum at 1 h; for decrease of OLC concentration in the stomach: stomach samples
Experimental: The studies were conducted following a protocol approved by the Animal Experimentation Ethics Committee of the University of Barcelona, Spain (trial no. CEEA 124/16) and Generalitat de Catalunya (no. 6435). Male Sprague Dawley rats (body weight 249 ± 8 g) were purchased from Envigo RMS Spain S.L. (Sant Feliu de Codines, Barcelona, Spain). The animals were acclimatized in animal housing in an air-conditioned room at 22 ± 2 °C under a 12 h/12 h cycle of light and darkness and given free access to a commercial diet (Teklad 2014, Envigo RMS Spain S.L.) and water for at least 10 days before the study. The rats were fasted for over 12 h before the experiments but were allowed free access to water.
Before the distribution experiment, the ROO (vehicle) was analyzed by LC-ESI-LTQ-Orbitrap-MS to make sure it was free of phenolic compounds. The liquid–liquid extraction of phenolic compounds of ROO was performed following the previously described procedures. The chromatographic and mass spectrometer conditions were the same as those used for the identification of metabolites (Section 2.3). After verifying that the ROO was free of phenols, OLC was added to obtain a final concentration of 0.3 mg/mL. The OLC concentration was chosen while taking into account both the OLC concentration in commercial EVOO (~300 mg/kg) and the daily ingestion of EVOO recommended by the European Food Safety Authority of at least 5 mg of hydroxytyrosol and its derivatives per 20 g of olive oil.
The rats were divided into four groups—a control group (no administration) and three dosed groups—to study the distribution of OLC at three different time points: 1, 2 and 4.5 h post-administration. On treatment day, the rats received the ROO containing OLC by oral gavage (2.5 mL/300 g body weight). The volume for gavage administration was established following a good practice guide for substance administration and was lower than the maximum volume of lipid vehicles per kg of rat body weight that prevented elevated plasma corticosterone levels.
The rats were anesthetized with isoflurane (IsoFloR, Veterinaria Esteve, Barcelona, Spain) and euthanized by exsanguination via cardiac puncture at 1, 2 or 4.5 h after ROO ingestion. The control group was maintained under fasting conditions without olive oil ingestion and then similarly euthanized. The blood was collected in EDTA tubes, and plasma samples were obtained by centrifugation (3000× g for 10 min at 4 °C) and stored at −80 °C until analysis. Different tissues and organs (heart, liver, spleen, lungs, kidney, brain, thyroid, stomach, small intestine and skin) were removed from the rats and placed in pre-weighed tubes. The small intestine samples consisted of a pool of duodenum, jejunum and ileum segments, but the main region used was the jejunum. The procedure was to locate the plica duodenocolica and, from there up to about 5 cm of the intestine before reaching the cecum, to remove it from the animal. The collected tissues were washed with physiological serum at 37 °C and placed between absorbent paper to remove the rest of the serum. In the case of the intestine, the luminal contents were first removed by applying pressure with the index finger and thumb, and then the lumen was washed by perfusing with the physiological serum at 37 °C. It was then placed between absorbent paper to remove the remains of the washings. In order to avoid compound oxidation, the collected tissues were kept on ice at all times. Finally, the samples were weighed and stored at −80 °C until analysis. For each group, four animals were used.
The tissues were homogenized with a small tissue disruptor (T 10 basic ULTRA-TURRAX®, IKA laboratory technology, Staufen Germany) in a 1:1 ratio (w/v) with water:ACN (1:1 (v/v) with 0.1% ascorbic acid). The samples were sonicated for 5 min in an ice bath and shaken for 1 min (Vortex-Genie 2). Each homogenate was centrifuged for 10 min (11,000× g at 4 °C). […]

[3] = set-up: method as in PMID 33348608; settings: in vivo, rats; cited from earlier work
[4] = plasma, stomach, small intestine

SMILES	concentration in the aqueous phase (partition between the oily and aqueous phase) ([1]; digestion of dietary lipids, lipid–water emulsion)	stability in the gastric phase ([1]; in vitro digestion study)	detection in plasma ([2]; plasma)	plasma and tissues in which the compound was detected [2, 4]	time of Cmax (highest concentration among the three sample times 1, 2, 4.5 h) ([2]; small intestine)	decrease of OLC concentration in the intestine ([2]; small intestine, 2 h post-ingestion)	decrease of OLC concentration in the intestine ([2]; small intestine, 4.5 h post-ingestion)	time of Cmax (highest concentration among the three sample times 1, 2, 4.5 h) ([2]; stomach)	decrease of OLC concentration in the stomach ([2]; 2 h post-ingestion, ROO with 0.3 mg/mL OLC by oral gavage 2.5 mL/300 g body weight)	decrease of OLC concentration in the stomach ([2]; 4.5 h post-ingestion)	intestinal absorption [3]
C/C=C(/C=O)[C@@H](CC=O)CC(=O)OCCc1ccc(O)cc1 [OLC, oleocanthal]	68.7%	good OLC stability in the gastric phase	not found in the plasma	only detected in the stomach and small intestine samples	1 h	16%	33%	1 h	36%	74%	16%
OCCc1ccc(O)cc1 [TY, tyrosol]				only detected in the stomach and intestinal samples	1 h			1 h			
